According to patent US7494980B2, “Antimicrobial peptide and methods of use thereof” (The United States of America as represented by the …, priority 2003, dated 2009):
Ends that are not written are not given here.

Legend:
L. acidophilus ATCC 4357 = test: In vitro susceptibility (broth microdilution MIC, MBC by spiral-plating); format: cell-based, Lactobacillus acidophilus
Excerpt: (§1) Strains used in Examples 3-6 included ATCC and laboratory strains of different oral bacteria. These included: Actinomyces naeslundii strain T14V-J1, Actinomyces israelii ATCC 10049, Streptococcus mutans strains LT 11 and ATCC 25175, Streptococcus sobrinus ATCC 33478, Streptococcus gordonii strains DL1 and ATCC 51656, Streptococcus sanguis strains SK36 and ATCC 10556, Streptococcus salivarius ATCC 9222, Streptococcus oralis strains 34 and ATCC 35037, Lactobacillus salivarius ATCC 29602, Lactobacillus acidophilus ATCC 4357, and Actinobacillus actinomycetemcomitans ATCC 43718. S. mutans strain LT 11 was kindly provided by Lin Tao, University of Illinois at Chicago, Ill. S. gordonii DLI, S. sanguis SK36, and S. oralis 34 were provided by John Cisar, National Institute of Dental and Craniofacial Research, NIH, Bethesda, Md.
(§2) Todd-Hewitt broth (THB), brain heart infusion (BHI) broth, Todd-Hewitt agar (THA), trypticase soy agar (TSA), lactobacilli MRS (MRS) broth, Actinomyces broth and Mueller-Hinton broth (MHB) were purchased from Becton Dickinson. Blood agar plates (BAP) were prepared by supplementing TSA with 5% sheep blood (PML Microbiologicals). All cultures, except for Actinobacillus actinomycetemcomitans, S. mitis and Actinomyces israelii, were grown at 37° C. in room air. Actinobacillus actinomycetemcomitans cultures were grown on BAP or in MHB supplemented with 15 μg haemin ml^−1 (Sigma), 15 μg β-nicotinamide adenine dinucleotide (NAD) ml^−1 (Sigma) and 5% yeast extract (Becton Dickinson) at 37° C. in 5% CO2. S. mitis was grown on BAP or in BHI broth at 37° C. in 5% CO2. […]
(§3) MICs were determined as described by Fuchs et al. (1998) with a slight modification. […] The MIC was defined as the lowest concentration of the peptide that prevented visible turbidity, as measured at 600 nm by using an ELISA reader (Titertek Multiskan MCC/340). […] Minimum bactericidal concentrations (MBCs) were determined by spiral-plating (Spiral Plater Autoplate 4000; Spiral Biotech) 50 μl from each clear well (≧MIC) onto BAP.

S. mitis ATCC = test: as above; format: cell-based; conditions: 24-48 h
Excerpt: as §1
(§4) Todd-Hewitt broth (THB), brain heart infusion (BHI) broth, Todd-Hewitt agar (THA), trypticase soy agar (TSA), lactobacilli MRS (MRS) broth, Actinomyces broth and Mueller-Hinton broth (MHB) were purchased from Becton Dickinson. Blood agar plates (BAP) were prepared by supplementing TSA with 5% sheep blood (PML Microbiologicals). All cultures, except for Actinobacillus actinomycetemcomitans, S. mitis and Actinomyces israelii, were grown at 37° C. in room air. Actinobacillus actinomycetemcomitans cultures were grown on BAP or in MHB supplemented with 15 μg haemin ml^−1 (Sigma), 15 μg β-nicotinamide adenine dinucleotide (NAD) ml^−1 (Sigma) and 5% yeast extract (Becton Dickinson) at 37° C. in 5% CO2. S. mitis was grown on BAP or in BHI broth at 37° C. in 5% CO2. Actinomyces israeilli was grown anaerobically in an anaerobic chamber (Coy Laboratory Products) in a 5% CO2/10% H2/85% N2 atmosphere.
(§5) MICs were determined as described by Fuchs et al. (1998) with a slight modification. Procedures were based on the National Committee for Clinical Laboratory Standards broth microdilution method. MHB was used as the main assay medium for most of the tested organisms. Freshly grown cultures at exponential phase were used as the inoculum. Bacteria were centrifuged at 4000 r.p.m. for 15 min at 4° C., suspended in 2× concentrated medium and adjusted to 4×106 c.f.u ml−1 in 2× concentrated medium. Aqueous peptide solution (100 μl) was added to each well of a 96-well, flat-bottomed plate (Becton Dickinson). The peptide solution was serially diluted (twofold) with sterile distilled water in the wells, with final peptide concentrations ranging from 3.13 to 200 μg ml−1. After dispensing 100 μl aliquots of bacterial suspension into the wells, the 96-well plates were incubated at 37° C. for 24-48 h in room air, CO2 or anaerobically. The MIC was defined as the lowest concentration of the peptide that prevented visible turbidity, as measured at 600 nm by using an ELISA reader (Titertek Multiskan MCC/340). […] Minimum bactericidal concentrations (MBCs) were determined by spiral-plating (Spiral Plater Autoplate 4000; Spiral Biotech) 50 μl from each clear well (≧MIC) onto BAP.

[1] = test system: Actinomyces naeslundii T14V-J1; test: as above; format: cell-based; conditions: 24-48 h
Excerpt: as §1, §4, §5

[2] = test system: Actinomyces israelii ATCC 10049; test: as above; format: cell-based; conditions: 24-48 h
Excerpt: as §1, §4, §5

S. gordonii ATCC 51656 = test: Bactericidal assay (log reduction in viable counts); format: cell-based, Streptococcus gordonii
Excerpt: as §1
(§6) The bactericidal assay was performed according to procedures described by Miyasaki et al. (1997, 1998) with a slight modification. […] Susceptibility was determined by examining the log reduction in viability counts of organisms that had been exposed to different concentrations of KSL. […] Bactericidal activity was also expressed as the 99% effective dose (ED99), which is the concentration of the antimicrobial decapeptide at which there is a 2-log or more reduction in c.f.u. […]
(§7) In addition to the determinations of MICs and MBCs of KSL, log reductions in viable counts of selected oral bacteria caused by KSL were also determined. […] With the exception of Actinobacillus actinomycetemcomitans, for which the assays were performed in 0.01% BHI, bactericidal action of KSL was determined in isotonic HBSS after incubation with the targeted bacteria for 1 h at 37° C. KSL at 6.25 μg ml^−1, which was determined to be the 99% effective dose (ED99), caused more than 2 log reductions in viable counts of the organisms tested, which included L. salivarius ATCC 29602 (FIG. 3a), S. mutans ATCC 25175^T (FIG. 3b), S. gordonii ATCC 51656 (FIG. 3c), and Actinobacillus actinomycetemcomitans ATCC 43718 (FIG. 3d).

L. salivarius ATCC 29602 [3] = test: In vitro susceptibility (broth microdilution MIC, MBC by spiral-plating); format: cell-based, Lactobacillus salivarius; conditions: 24-48 h
Excerpt: as §1, with “Md. […]” for “Md.”
as §3

S. mutans LT11 = test: as above; format: cell-based, Streptococcus mutans; conditions: 4 × 10^7 cells ml^−1, 24-48 h
Excerpt: as §1, with “Md. […]” for “Md.”
as §3

S. sobrinus ATCC 33478 = test: as above; format: cell-based, Streptococcus sobrinus
Excerpt: as §1, §2, §3

S. oralis ATCC 35037 = test: as above; format: cell-based, Streptococcus oralis; conditions: 24-48 h
Excerpt: as §1, with “Md. […]” for “Md.”
as §3

L. salivarius ATCC 29602 [4] = test: Bactericidal assay (log reduction in viable counts); format: cell-based, Lactobacillus salivarius
Excerpt: as §1, §6, §7

[5] = clear MIC wells plated on BAP, 24-48 h

KKVVFKVKFK-NH2 [KSL, lys-lys-val-val-phe-lys-val-lys-phe-lys]
concentration inhibiting growth effectively (L. acidophilus ATCC 4357): < 25 µg/mL
MIC (L. acidophilus ATCC 4357; 10% MRS, 4 × 10^6 cells ml^−1, 37° C., 24-48 h): 3.13 µg/mL
MBC (L. acidophilus ATCC 4357; [5]): 12.5 µg/mL
MIC (S. mitis ATCC; BHI, 5% CO2, 4 × 10^6 cells ml^−1, 37° C.): 25 µg/mL
MBC (S. mitis ATCC; clear MIC wells plated on BAP): 50 µg/mL
MIC ([1]; MHB or modified broth, 4 × 10^6 cells ml^−1, 37° C.): 3.13 µg/mL
MBC ([1]; clear MIC wells plated on BAP): 12.5 µg/mL
MIC ([2]; 20% Actinomyces broth, anaerobic, 4 × 10^6 cells ml^−1, 37° C.): 6.25 µg/mL
MBC ([2]; clear MIC wells plated on BAP): 12.5 µg/mL
log reduction in viable counts (S. gordonii ATCC 51656; 6.25 μg ml^−1, HBSS, FIG. 3c): more than 2 log
reduction in viability (S. gordonii ATCC 51656; concentrations of <10 μg ml^−1): > 3 logs
ED99 (99% effective dose) (S. gordonii ATCC 51656; isotonic HBSS, 1 h at 37° C.): 6.25 µg/mL
MIC (L. salivarius ATCC 29602 [3]; 10% MRS, 4 × 10^6 cells ml^−1, 37° C.): 3.13 µg/mL
MBC (L. salivarius ATCC 29602 [3]; clear MIC wells plated on BAP): 12.5 µg/mL
MIC (S. mutans LT11; MHB, 37° C.): 25 µg/mL
MBC (S. mutans LT11; clear MIC wells plated on BAP): 100 µg/mL
concentration inhibiting growth effectively (S. sobrinus ATCC 33478): < 25 µg/mL
MIC (S. sobrinus ATCC 33478; MHB, 4 × 10^6 cells ml^−1, 37° C., 24-48 h): 25 µg/mL
MBC (S. sobrinus ATCC 33478; [5]): 50 µg/mL
MIC (S. oralis ATCC 35037; MHB, 4 × 10^6 cells ml^−1, 37° C.): 100 µg/mL
MBC (S. oralis ATCC 35037; clear MIC wells plated on BAP): 200 µg/mL
log reduction in viable counts (L. salivarius ATCC 29602 [4]; 6.25 μg ml^−1, HBSS, FIG. 3a): more than 2 log
reduction in viability (L. salivarius ATCC 29602 [4]; concentrations of <10 μg ml^−1): > 3 logs
